Results from patent publication US11459336B2, “Pyrazine carbamates and their use as GluN2B receptor modulators” (JANSSEN PHARMACEUTICA NV, priority 2019, dated 2022).

These compounds were tested against T1, human GluN1/GluN2B NMDA receptors (Homo sapiens, UniProt Q13224) (assay: Calcium flux (FLIPR) assay on cloned human GluN1/GluN2B ion channels expressed in mammalian cells, standard assay). Conditions: glutamate ~EC40, 10 μM glycine, stable cell line with Tet-On induced expression.
T1 construct: expressed in transfected cells
T1 sequence (Q13224 27-1484, other chains not shown): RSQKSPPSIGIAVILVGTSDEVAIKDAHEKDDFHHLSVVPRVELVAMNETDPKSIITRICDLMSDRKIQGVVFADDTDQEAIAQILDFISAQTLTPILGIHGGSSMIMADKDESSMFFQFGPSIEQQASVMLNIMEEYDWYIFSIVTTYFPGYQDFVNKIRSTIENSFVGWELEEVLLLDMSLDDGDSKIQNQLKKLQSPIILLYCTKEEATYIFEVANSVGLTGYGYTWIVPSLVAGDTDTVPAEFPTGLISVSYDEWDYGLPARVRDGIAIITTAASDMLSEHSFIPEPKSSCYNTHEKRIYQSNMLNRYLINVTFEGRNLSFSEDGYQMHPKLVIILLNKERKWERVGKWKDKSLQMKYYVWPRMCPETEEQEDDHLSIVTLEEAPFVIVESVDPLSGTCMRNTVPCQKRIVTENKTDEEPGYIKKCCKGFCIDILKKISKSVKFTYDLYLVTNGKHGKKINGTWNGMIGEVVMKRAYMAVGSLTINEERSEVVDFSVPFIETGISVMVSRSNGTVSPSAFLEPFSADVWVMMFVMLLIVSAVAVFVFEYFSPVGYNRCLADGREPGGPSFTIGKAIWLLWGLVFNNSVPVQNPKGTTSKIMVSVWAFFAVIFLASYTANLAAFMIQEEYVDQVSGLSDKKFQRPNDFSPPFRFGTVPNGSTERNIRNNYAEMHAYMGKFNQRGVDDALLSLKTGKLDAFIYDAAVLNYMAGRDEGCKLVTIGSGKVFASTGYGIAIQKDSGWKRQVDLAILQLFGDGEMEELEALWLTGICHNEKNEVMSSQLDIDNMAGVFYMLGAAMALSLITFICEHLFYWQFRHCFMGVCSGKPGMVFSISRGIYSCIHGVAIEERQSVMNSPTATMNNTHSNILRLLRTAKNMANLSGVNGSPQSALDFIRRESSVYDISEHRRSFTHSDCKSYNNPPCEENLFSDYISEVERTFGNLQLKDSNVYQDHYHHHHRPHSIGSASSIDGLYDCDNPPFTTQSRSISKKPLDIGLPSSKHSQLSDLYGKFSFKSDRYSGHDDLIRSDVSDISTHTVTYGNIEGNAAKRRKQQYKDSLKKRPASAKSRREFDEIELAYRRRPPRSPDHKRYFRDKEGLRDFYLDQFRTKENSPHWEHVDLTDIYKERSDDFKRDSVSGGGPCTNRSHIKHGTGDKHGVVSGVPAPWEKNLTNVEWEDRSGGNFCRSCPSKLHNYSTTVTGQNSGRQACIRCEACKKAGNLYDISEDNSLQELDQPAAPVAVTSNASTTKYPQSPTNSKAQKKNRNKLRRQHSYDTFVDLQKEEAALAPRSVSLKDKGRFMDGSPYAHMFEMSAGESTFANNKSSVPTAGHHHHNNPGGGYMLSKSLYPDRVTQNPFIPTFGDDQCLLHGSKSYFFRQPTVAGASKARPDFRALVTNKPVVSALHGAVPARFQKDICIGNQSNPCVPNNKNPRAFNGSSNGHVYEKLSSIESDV
Assay type: cell-based
Description: NMDA receptors are ion channels that are highly permeable to Ca^2+ ions, rendering it possible to monitor NMDA receptor function using cell-based calcium flux assay. In this assay, co-agonists glutamate and glycine are added to cells heterologously expressing human GluN1/GluN2B NMDA receptors to initiate cellular Ca^2+ influx. The time course of the changes in intracellular calcium is measured using a fluorescent dye and a FLIPR (Fluorometric Imaging Plate Reader) device.
Twenty four hours before measurements, the expression of the NMDA receptors in the stable cell line is induced with Tet-On inducible system in the presence of a non-selective NMDA receptor blocker. On the day of the experiment, cell culture media is carefully washed and the cells are loaded with Calcium 5 Dye Kit (Molecular Devices) in dye loading buffer containing 137 mM NaCl, 4 mM KCl, 2 mM CaCl2, 0.5 mM MgCl2 (standard assay) or 1.5 mM MgCl2 (HTS assay), 10 mM HEPES and 5 mM D-glucose; pH 7.4. After 1 h incubation at the room temperature, the dye is washed away with the assay buffer (137 mM NaCl (standard assay) or 150 mM (HTS assay), 4 mM KCl (standard assay) or 3 mM (HTS assay), 2 mM CaCl2, 0.01 mM EDTA, 10 mM HEPES and 5 mM D-glucose; pH 7.4) In the FLIPR TETRA reader, various concentrations of the test compounds are added to the cells for 5 min while fluorescence is monitored to detect potential agonist activity. Next, co-agonists, glutamate and glycine are added for another 5 minutes. The concentration of glutamate corresponding to ˜EC40 (standard assay) or EC40 (HTS assay) is used to maximize the assay's signal window and ability to detect NMDA receptor antagonists and negative allosteric modulators. A saturating concentration (10 μM) of glycine is also present in the assay. A non-selective NMDA receptor antagonist, (+)MK-801 is used as a positive control for antagonist activity. The fluorescent signal in the presence of test compounds is quantified and normalized to the signal defined by the appropriate control wells.

| Compound | IC50 |
| --- | --- |
| C[C@@H]1COC(=O)N1Cc1cncc(-c2ccc(F)c(C(F)F)c2)n1 [Example 7, (4R)-3-[[6-[3-(Difluoromethyl)-4-fluoro-phenyl]pyrazin-2-yl]methyl]-4-methyl-oxazolidin-2-one] | 288 nM |
| Cc1ncc(-c2ccc(F)c(C(F)F)c2)nc1CN1CC2(CC2)OC1=O [Example 10, 5-[[6-[3-(Difluoromethyl)-4-fluoro-phenyl]-3-methyl-pyrazin-2-yl]methyl]-7-oxa-5-azaspiro[2.4]heptan-6-one] | 37 nM |
| Cc1ncc(-c2ccc(F)c(C(F)F)c2)nc1CN1C(=O)OC[C@@H]1C [Example 12, (4S)-3-[[6-[3-(Difluoromethyl)-4-fluoro-phenyl]-3-methyl-pyrazin-2-yl]methyl]-4-methyl-oxazolidin-2-one] | 605 nM |
| Cc1ncc(-c2ccc(F)c(C(F)F)c2)nc1CN1C[C@@H](C)OC1=O [Example 13, (5R)-3-[[6-[3-(Difluoromethyl)-4-fluoro-phenyl]-3-methyl-pyrazin-2-yl]methyl]-5-methyl-oxazolidin-2-one] | 45 nM |
| Cc1ncc(-c2ccc(F)c(C(F)F)c2)nc1CN1C[C@H](C)OC1=O [Example 14, (5S)-3-[[6-[3-(Difluoromethyl)-4-fluoro-phenyl]-3-methyl-pyrazin-2-yl]methyl]-5-methyl-oxazolidin-2-one] | 50 nM |
| O=C1OC2(CC2)CN1Cc1cncc(-c2ccc(F)c(OC(F)F)c2)n1 [Example 16, 5-[[6-[3-(Difluoromethoxy)-4-fluoro-phenyl]pyrazin-2-yl]methyl]-7-oxa-5-azaspiro[2.4]heptan-6-one] | 19 nM |
| CC1(C)CN(Cc2cncc(-c3ccc(F)c(OC(F)F)c3)n2)C(=O)O1 [Example 17, 3-[[6-[3-(Difluoromethoxy)-4-fluoro-phenyl]pyrazin-2-yl]methyl]-5,5-dimethyl-oxazolidin-2-one] | 1140 nM |
| C[C@@H]1COC(=O)N1Cc1cncc(-c2ccc(F)c(OC(F)F)c2)n1 [Example 18, (4R)-3-[[6-[3-(Difluoromethoxy)-4-fluoro-phenyl]pyrazin-2-yl]methyl]-4-methyl-oxazolidin-2-one] | 44 nM |
| C[C@H]1COC(=O)N1Cc1cncc(-c2ccc(F)c(OC(F)F)c2)n1 [Example 19, (4S)-3-[[6-[3-(Difluoromethoxy)-4-fluoro-phenyl]pyrazin-2-yl]methyl]-4-methyl-oxazolidin-2-one] | 291 nM |
| C[C@@H]1CN(Cc2cncc(-c3ccc(F)c(OC(F)F)c3)n2)C(=O)O1 [Example 20, (5R)-3-[[6-[3-(Difluoromethoxy)-4-fluoro-phenyl]pyrazin-2-yl]methyl]-5-methyl-oxazolidin-2-one] | 29 nM |

More lines, now with the values ahead:

| IC50 | Compound |
| --- | --- |
| 195 nM | O=C1OCCN1Cc1cncc(-c2ccc(F)c(C(F)F)c2)n1 [Example 1, 3-[[6-[3-(Difluoromethyl)-4-fluoro-phenyl]pyrazin-2-yl]methyl]oxazolidin-2-one] |
| 73 nM | O=C1OCCN1Cc1cncc(-c2ccc(F)c(OC(F)F)c2)n1 [Example 2, 3-[[6-[3-(Difluoromethoxy)-4-fluoro-phenyl]pyrazin-2-yl]methyl]oxazolidin-2-one] |
| 1360 nM | CC1(C)CN(Cc2cncc(-c3ccc(F)c(C(F)F)c3)n2)C(=O)O1 [Example 4, 3-[[6-[3-(Difluoromethyl)-4-fluoro-phenyl]pyrazin-2-yl]methyl]-5,5-dimethyl-oxazolidin-2-one] |
| 29 nM | C[C@@H]1CN(Cc2cncc(-c3ccc(F)c(C(F)F)c3)n2)C(=O)O1 [Example 5, (5R)-3-[[6-[3-(Difluoromethyl)-4-fluoro-phenyl]pyrazin-2-yl]methyl]-5-methyl-oxazolidin-2-one] |
| 60 nM | C[C@H]1CN(Cc2cncc(-c3ccc(F)c(C(F)F)c3)n2)C(=O)O1 [Example 6, (5S)-3-[[6-[3-(Difluoromethyl)-4-fluoro-phenyl]pyrazin-2-yl]methyl]-5-methyl-oxazolidin-2-one] |
| 65 nM | O=C1OCCCN1Cc1cncc(-c2ccc(F)c(C(F)F)c2)n1 [Example 9, 3-[[6-[3-(Difluoromethyl)-4-fluoro-phenyl]pyrazin-2-yl]methyl]-1,3-oxazinan-2-one] |
